Reference: patent EP4737452A1, “NOVEL PYRIMIDINE DERIVATIVES” (Aigen Sciences Inc., priority 2023, dated 2025)

Columns and labels:
[1] = test system: MDA-MB-436 cells; experiment: BRCA1 synthetic lethality assay, colony formation with crystal violet staining, BRCA1 mutant cells; format: cell-based; settings: cultured for 21 days
Protocol: (§1) In this experimental example, whether the compound according to the present invention had synthetic lethal efficacy with BRCA1 activity was tested by examining the colony formation of tumor cells. MDA-MB-436 cells (ATCC, #HTB-130), a triple-negative breast cancer cell line with reduced BRCA1 activity due to BRCA1 mutation, and MCF-10A cell line (ATCC, #CRL-10317), which has wild-type BRCA1/2 genes and is used as a model of normal breast cells, were cultured in their respective culture media (MDA-MB-436: L-15 +10 […] + 10% fetal bovine serum (FBS), MCF-10A: MEGM + 100 ng/mL cholera toxin), and then seeded in 6-well plates at a concentration of 10,000 cells per well for the MDA-MB-436 cells and 120 cells per well for the MCF-10A cell line. […] The crystal violet stained in the cells was extracted by treating the cells with 500 µL of 10% acetic acid for 20 minutes at room temperature for quantitative analysis. 150 µL of the extracted crystal violet was placed in two wells of a 96-well plate, and the absorbance was measured at 565 nm. The absorbance was quantified relative to the absorbance value of a blank sample containing only DMSO but not the compound of the present invention.

[2] = test system: MCF-10A cell line; experiment: BRCA1 synthetic lethality assay, colony formation with crystal violet staining, BRCA1/2 wild-type cells; format: cell-based
Protocol: as §1

[3] = test system: MDA-MB-436; experiment: Cell survival analysis (CellTiter-Glo, 10 days culture); format: cell-based; settings: Homo sapiens, 240 h; MDA-MB-436 cell line, cultured for 10 days, CellTiter-Glo; read-out: Cell growth IC50 grade
Protocol: In this experimental example, the cell growth inhibitory effect of compounds according to the present invention and positive control compounds in tumor cell lines was examined.
MDA-MB-436 (ATCC, #HTB-130) cell line was cultured in cell culture medium (Leibovitz's L-15 (GIBCO catalog no. 11415064) + 10 µg/mL insulin (Yeasen catalog no. 40112ES25) + 16 µg/mL glutathione (GIBCO catalog no. 25030-081) + 10% fetal bovine serum (FBS) (Excell Bio catalog no. FSP500)). 3,000 MDA-MB-436 cells were plated per well in a 96-well plate and cultured for 1 day at 37°C in 5% CO2. […] The cells were then cultured in a cell incubator for 10 days, and the cell culture medium containing the compound was replaced on the 5th day of culture. Cell survival rate was analyzed for luminescence using the Promega CellTiter-Glo Luminescent Cell Viability Assay Kit (Promega catalog number G7573), and the luminescence was measured using a PerkinElmer EnVision instrument. The percentage of cell growth inhibition rate was calculated from the measured relative luminescence unit (RLU) as follows. Inhibition rate = 1−((RLU compound−RLU blank)/(RLU control−RLU blank)) × 100 [formula]

[4] = molecular target: USP1 enzyme (Homo sapiens, UniProt O94782); experiment: Biochemical analysis of USP1 enzyme activity (ubiquitin-rhodamine 110 deubiquitination, fluorescence); settings: ubiquitin-rhodamine 110 substrate, 10 minutes pre-incubation, 30 minutes reaction at room temperature; read-out: Enzyme activity IC50 grade
Chain of USP1 enzyme (O94782 whole entry): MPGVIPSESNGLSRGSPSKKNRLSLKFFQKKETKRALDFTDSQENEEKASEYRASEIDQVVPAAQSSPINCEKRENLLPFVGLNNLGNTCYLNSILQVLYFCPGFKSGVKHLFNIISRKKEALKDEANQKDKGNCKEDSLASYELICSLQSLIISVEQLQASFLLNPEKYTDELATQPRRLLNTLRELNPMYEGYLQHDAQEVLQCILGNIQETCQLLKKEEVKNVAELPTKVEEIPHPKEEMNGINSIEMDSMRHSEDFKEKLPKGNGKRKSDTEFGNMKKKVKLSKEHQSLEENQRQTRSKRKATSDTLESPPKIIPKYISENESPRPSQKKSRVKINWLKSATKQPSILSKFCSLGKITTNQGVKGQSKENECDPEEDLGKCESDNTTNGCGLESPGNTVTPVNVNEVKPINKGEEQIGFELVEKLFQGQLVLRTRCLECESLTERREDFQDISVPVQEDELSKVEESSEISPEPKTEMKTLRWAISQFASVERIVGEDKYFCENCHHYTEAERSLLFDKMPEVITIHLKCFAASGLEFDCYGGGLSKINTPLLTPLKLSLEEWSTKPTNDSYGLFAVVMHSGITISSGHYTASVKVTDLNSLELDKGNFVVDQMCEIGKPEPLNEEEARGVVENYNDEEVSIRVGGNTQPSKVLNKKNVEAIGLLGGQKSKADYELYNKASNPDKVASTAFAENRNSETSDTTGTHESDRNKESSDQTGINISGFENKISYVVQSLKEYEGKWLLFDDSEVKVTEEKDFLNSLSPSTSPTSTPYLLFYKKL
Chain of USP1 enzyme (Q8TAF3 whole entry partner): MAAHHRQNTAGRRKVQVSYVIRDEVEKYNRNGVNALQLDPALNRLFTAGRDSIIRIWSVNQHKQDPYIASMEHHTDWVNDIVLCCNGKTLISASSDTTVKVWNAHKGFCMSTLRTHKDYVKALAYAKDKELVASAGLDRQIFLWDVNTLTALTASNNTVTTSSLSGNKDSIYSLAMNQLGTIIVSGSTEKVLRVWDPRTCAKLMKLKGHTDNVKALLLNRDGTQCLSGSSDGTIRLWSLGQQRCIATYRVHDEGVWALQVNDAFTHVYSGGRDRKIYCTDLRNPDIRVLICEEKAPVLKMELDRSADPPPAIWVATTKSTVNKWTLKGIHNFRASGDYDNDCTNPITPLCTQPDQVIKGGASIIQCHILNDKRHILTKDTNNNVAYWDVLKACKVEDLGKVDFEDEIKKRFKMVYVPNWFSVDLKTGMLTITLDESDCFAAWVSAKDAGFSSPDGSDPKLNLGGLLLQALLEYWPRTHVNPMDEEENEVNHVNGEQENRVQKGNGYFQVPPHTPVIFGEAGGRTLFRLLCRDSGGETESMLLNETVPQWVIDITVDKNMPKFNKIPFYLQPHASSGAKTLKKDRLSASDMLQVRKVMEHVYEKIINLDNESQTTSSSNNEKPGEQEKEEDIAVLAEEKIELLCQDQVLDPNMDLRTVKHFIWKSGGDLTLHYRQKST
Protocol: In this experimental example, the inhibitory effect of the compounds according to the present invention and the positive control compound on USP1 deubiquitinating activity was tested using a biochemical enzymatic assay. Ubiquitin-rhodamine 110 was used as a substrate for measuring deubiquitinating activity. This substrate compound is a substance in which rhodamine 110 is linked to the glycine residue at the C-terminus of ubiquitin by an amide bond. When this amide bond is cleaved by the deubiquitinating activity, a fluorescent signal is counted.
Subsequently, analytical buffer solution (50 mM hydroxyethylpiperazineethanesulfonic acid (HEPES) containing USP1 enzyme, 100 mM NaCl, 2 mM tris(2-carboxyethyl)phosphine (TCEP), and 100 µg/mL bovine serum albumin (BSA)) were added to each well of the plate and incubated at room temperature for 10 minutes. Subsequently, analytical y buffer solution containing ubiquitin-rhodamine 110 was added to each well and reacted at room temperature for 30 minutes.

With `COc1cccc(C2CC2)c1-c1ncc(P(C)(C)=O)c(NCc2ccc(-c3nc(C(F)(F)F)cn3C)cc2)n1` [Example 1, (2-(2-cyclopropyl-6-methoxyphenyl)-4-((4-(1-methyl-4-(trifluoromethyl)-1H-imidazol-2-yl)benzyl)amino)pyrimidin-5-yl)dimethylphosphine oxide] the “crystal violet extraction amount” value ([1]; MDA-MB-436 cells with reduced BRCA1 activity, absorbance at 565 nm relative to DMSO blank, Fig. 1 A) was “less than one-fifth of that of the DMSO blank”, the colony formation ([1]; MDA-MB-436 cells, compared with DMSO blank sample, Fig. 1 B) was “significantly reduced” and the “crystal violet extraction amount” value ([2]; MCF-10A cells with wild-type BRCA1/2, cultured for 21 days, absorbance at 565 nm relative to DMSO blank, Fig. 1 A) was “no different from that of the DMSO blank”. The colony formation ([2]; MCF-10A cells, cultured for 21 days, compared with DMSO blank sample, Fig. 1 B) was “formed colonies at a normal level”, the IC50 [3] was 0.1 to 0.5 µM and the IC50 [4] was 0.05 to 0.1 µM.
